Experimental data: patent publication US20180296588A1, “COMBINATION THERAPY FOR TREATING VIRAL INFECTIONS” (ContraVir Pharmaceuticals, Inc., priority 2017, published 2018)
Entries after “also recorded” stand apart in the source; their conditions may differ. Where two headings read alike, the source gives them in different places.

What was measured:
HBV = test: Anti-HBV effects in the HBV transgenic mouse model; assay type: in vivo, HBV transgenic mice
Procedure: (§1) Compound I and Compound II were administered by once-daily oral gavage for 16 days to HBV transgenic mice which replicated HBV from a 1.3× overlength HBV genome integrated into the mouse genome. Expression occurred mostly in hepatocytes.
Treatment Groups (n=8/Group):
After 16 days of dosing, livers and serum were harvested and the following parameters were measured: a) HBV DNA by quantitative PCR (liver and serum) b) HBsAg by ELISA (liver and serum) c) HBeAg by ELISA (serum)

[1] = test system: HBV DNA replication in DES19 cells; test: Inhibition of intracellular HBV DNA replication in HepDES19 cells (PCR); assay type: cell-based; details: Hepatitis B virus, HepDES19, read-out: IC50 for Compound I, DES19 cells
Procedure: (§2) The antiviral activity of Compound I and Compound II towards HBV was tested in various cell lines (HepAD38, HepDE19 and HepDES19). The HepAD38 cell line is derived from the HepG2 cell line and engineered to stably maintain HBV (see Ladner et al., Antimicrobial Agents and Chemotherapy, 1997, 41, 1715-1720, which is incorporated herein by reference in its entirety). DE19 and DES19 cell lines are human hepatoma derived cell lines (see Guo et al. J. Virol 2007, 81, 12472-84, which is incorporated herein by reference in its entirety). Active HBV replication in the cells was suppressed by inclusion of tetracycline in the cell culture medium, which binds to a tetracycline-sensitive promoter, and induced by removal of tetracycline. HBV replication was quantified by measuring the amount of HBV DNA in the cells.
(§3) Compound I and Compound II were applied to induced cells (i.e., cells without tetracycline), either alone or in combination at various concentrations. Next, intracellular DNA was isolated and HBV DNA was measured by polymerase chain reaction (PCR). The percent inhibition of HBV DNA was examined over the concentration ranges of 0-320 nM for Compound I and 0-640 nM for Compound II. Concentration versus effect curves were constructed for both drugs (FIGS. 1A and 1B, 2A and 2B, and 3A and 3B). […] See FIGS. 1B, 2B, and 3B (curves where [Compound II]=0).
(§4) The level of reduction in intracellular HBV DNA by the various combinations of Compound I and II as plotted in FIGS. 1 A and 1B, 2A and 2B, and 3A and 3B, was analyzed using the Shipman-Prichard synergy scoring program (MacSynergy™ II program, Prichard et al. Antiviral Research 1990), wherein the experimentally observed effect of each combination is compared to the theoretical, additive inhibition. The comparison is used to determine combination scores (effect volumes) that represent either synergistic (positive scores) or antagonistic (negative scores) effects. All the positive and negative scores are summed to calculate overall synergy and antagonism scores that reflect the entire concentration spectrum of the two drugs. The magnitude of the scores reflect the degree of synergism/antagonism and the likelihood of the synergistic/antagonistic activities being important in vivo, according to the following four categories: (1) Synergy/Antagonism Volume=0-25 (log volume <2): insignificant synergy/antagonism (i.e., only additive effects); (2) Synergy/Antagonism Volume=25-50 (log volume 2-5): minor but significant amount of synergy/antagonism; (3) Synergy/Antagonism Volume=50-100 (log volume 5-9): moderate synergy/antagonism that may be important in vivo; (4) Synergy/Antagonism Volume >100 (log volume >9): stronger synergy/antagonism that is probably important in vivo. IC50 values for Compound I in combination with different concentrations of Compound II, and Compound II in combination with different concentrations of Compound I, are presented in Tables 6 and 7, respectively.

[2] = test system: HBV DNA replication in DE19 cells; test: Inhibition of intracellular HBV DNA replication in HepDE19 cells (PCR); assay type: cell-based; details: Hepatitis B virus, HepDE19, read-out: IC50 for Compound I, DE19 cells
Procedure: as §2, §3, §4

[3] = test system: HBV DNA replication in AD38, DES19 and DE19 cells; test: In vitro combination study, statements covering AD38, DES19 and DE19 cells together; assay type: cell-based, hepatitis B virus; details: Compound I 5-320 nM and/or Compound II 10-640 nM; FIGS. 1-3
Procedure: The antiviral activity of Compound I and Compound II towards HBV was tested in various cell lines (HepAD38, HepDE19 and HepDES19). […] Active HBV replication in the cells was suppressed by inclusion of tetracycline in the cell culture medium, which binds to a tetracycline-sensitive promoter, and induced by removal of tetracycline. HBV replication was quantified by measuring the amount of HBV DNA in the cells.
The comparison is used to determine combination scores (effect volumes) that represent either synergistic (positive scores) or antagonistic (negative scores) effects. All the positive and negative scores are summed to calculate overall synergy and antagonism scores that reflect the entire concentration spectrum of the two drugs. […]

[4] = test system: HBV DNA replication in HepAD38 cells; test: Inhibition of intracellular HBV DNA replication in HepAD38 cells (PCR); assay type: cell-based; details: Hepatitis B virus, HePAD38, read-out: IC50 for Compound I, AD38 cells
Procedure: as §2, §3, §4

[5] = Compound I concentration in serum by liquid chromatography-mass spectrometry; assay type: in vivo, HBV transgenic mice; details: 3-hr post-dose on Day 16 of dosing; FIG. 11
Procedure: as §1
Compound I Concentrations were Measured by Liquid Chromatography-Mass Spectrometry (Serum)

SMILES: CC[C@@H]1NC(=O)C([C@H](O)[C@H](C)CCCCCCNC(C)=O)N(C)C(=O)[C@@H](C(C)C)N(C)C(=O)[C@H](CC(C)C)N(C)C(=O)[C@H](CC(C)C)N(C)C(=O)[C@H](C)NC(=O)[C@H](C)NC(=O)[C@@H](CC(C)C)N(C)C(=O)[C@H](C(C)C)NC(=O)[C@H](CC(C)C)N(C)C(=O)[C@H](C)N(C)C1=O (stereo partly shown) [Compound I]
- liver HBsAg (HBV; alone or in combination, oral, 16 days, FIG. 8): did not affect
- serum HBV DNA (HBV; alone or in combination, oral, 16 days, FIG. 9): did not affect
- serum HBeAg (HBV; alone or in combination, oral, 16 days, FIG. 10): did not affect
- serum HBsAg (HBV; high-dose Compound I (50 mg/kg/day), oral, 16 days, FIG. 7): decreased serum HBsAg; also recorded: able to lower serum HBsAg levels
- liver HBV DNA (copies per mg liver) (HBV; once-daily oral gavage 16 days, Compound I 10 or 50, Compound II 5 or 10 mg/kg/day, combination 10+5, FIG. 6): decreased liver HBV DNA; also recorded: highly efficacious
- IC50 ([1]; Compound II 0 nM): 33.4 nM
- IC50 ([1]; Compound II 10 nM): 29.1 nM
- IC50 ([1]; Compound II 20 nM): 27.2 nM
- IC50 ([1]; Compound II 40 nM): 26.4 nM
- IC50 ([1]; Compound II 80 nM): 27.8 nM
- IC50 ([1]; Compound II 160 nM): 34.7 nM
- IC50 ([1]; Compound II 320 nM): 32.4 nM
- IC50 ([1]; Compound II 640 nM): 22.9 nM
- IC50 ([2]; Compound II 0 nM): 32.9 nM
- IC50 ([2]; Compound II 10 nM): 29.5 nM
- IC50 ([2]; Compound II 20 nM): 26 nM
- IC50 ([2]; Compound II 40 nM): 27.3 nM
- IC50 ([2]; Compound II 80 nM): 27.8 nM
- IC50 ([2]; Compound II 160 nM): 33.6 nM
- IC50 ([2]; Compound II 320 nM): 37.5 nM
- IC50 ([2]; Compound II 640 nM): 23.3 nM
- intracellular HBV DNA compared to induced cells in the absence of the drug [3]: reduced intracellular HBV DNA in a concentration-dependent manner
- IC50 ([4]; Compound II 0 nM): 32.1 nM
- IC50 ([4]; Compound II 10 nM): 31 nM
- IC50 ([4]; Compound II 20 nM): 26.5 nM
- IC50 ([4]; Compound II 40 nM): 29.9 nM
- IC50 ([4]; Compound II 80 nM): 29.5 nM
- IC50 ([4]; Compound II 160 nM): 34.5 nM
- IC50 ([4]; Compound II 320 nM): 38.2 nM
- IC50 ([4]; Compound II 640 nM): 21 nM
- serum Compound I concentration [5]: correlated with the effects of Compound I on HBV DNA and HBsAg
